Results from US20080234233A1, “MEDICAMENT FOR TREATMENT OF NEURODEGENERATIVE DISEASES” (INSTITUTE OF MEDICINAL MOLECULAR DESIGN INC., priority 2002, published 2008).

Test system: NF-κ B activation
Assay: Inhibitory activity of NF-κB activation, luciferase reporter assay under TNF-α stimulation in HepG2
Assay type: cell-based, human
Settings: HepG2, TNF-α 40 ng/ml, 4 hours; for inhibition at 1 µg/mL / inhibition at 10 µg/mL: Homo sapiens, read-out: Inhibitory rate against NF-κB activation (%)
Description: Measurement of Inhibitory Activity of NF-κB activation
Using a transfection reagent (Effectene; QIAGEN), the human hepatoma cell strain HepG2 was transfected with a plasmid (pNF κ B-Luc Reporter Plasmid; […]) integrated with an oligonucleotide having five tandem copies of NF-κ B binding sequences([…]) on a upstream region of firefly luciferase gene(Luc) according to the QIAGEN's protocol, and the cells were incubated for 6 to 24 hours. After addition of TNF-α (40 ng/ml) in the presence or absence of a test compound, the cells were incubated for 4 hours, and intracellular luciferase activity was measured by using PicaGene LT (TOYO INK MFG Co., Ltd.) and a chemical luminescence measurement apparatus ([…]luor Plus; TECAN). The inhibitory ratio was measured as a ratio relative to the value of the luciferase activity in the absence of the test compound.

Inhibitory rate against NF-κB activation (%) (Drug concentration at 1 μg/mL)	Compound	inhibition at 1 µg/mL (Drug concentration at 1 μg/mL)	inhibition at 10 µg/mL (Drug concentration at 10 μg/mL)	Inhibitory rate against NF-κB activation (%) (Drug concentration at 10 μg/mL)
	O=C(Nc1cc(C(F)(F)F)cc(C(F)(F)F)c1)c1cc(S(=O)(=O)n2cccc2)ccc1O [compound 42, N-[3,5-Bis(trifluoromethyl)phenyl]-2-hydroxy-5-(pyrrole-1-sulfonyl)benzamide]	84.4%	98.1%	
	CC(C)(C)c1nc(NC(=O)c2cc(Cl)ccc2O)sc1C#N [compound 188, 5-Chloro-N-{5-cyano-4-[(1,1-dimethyl)ethyl]thiazol-2-yl}-2-hydroxybenzamide]	92.6%	92.4%	
96.0%	CCCCc1ccc([N+](=O)[O-])cc1NC(=O)c1cc(Cl)ccc1O [compound 176]			99.5%
	CC(C)c1cccc(C(=O)Nc2cc(C(F)(F)F)cc(C(F)(F)F)c2)c1O [compound 256, N-[3,5-bis(trifluoromethyl)phenyl]-2-hydroxy-3-isopropylbenzamide]	92.1%		
31.6%	Cc1ccc(S(=O)(=O)c2ccc(Cl)c(NC(=O)c3cc(Cl)ccc3O)c2)cc1 [compound 169]			95.9%
53.3%	C#Cc1ccc(O)c(C(=O)Nc2cc(C(F)(F)F)cc(C(F)(F)F)c2)c1 [compound 21]			90.1%
90.8%	CC(=O)Oc1ccc(Cl)cc1C(=O)Nc1cc(C(C)(C)C)cc(C(C)(C)C)c1 [compound 139]			94.7%
	O=C(Nc1cc(Cl)cc(Cl)c1)c1ccc(Cl)cc1O [compound 129]			71.8%
42.2%	CN(C)S(=O)(=O)c1ccc(O)c(C(=O)Nc2cc(C(F)(F)F)cc(C(F)(F)F)c2)c1 [compound 41, N-[3,5-Bis(trifluoromethyl)phenyl]-5-dimethylsufamoyl-2-hydroxybenzamide]			95.9%
69.6%	COc1ccc(C)c(NC(=O)c2cc(Cl)ccc2O)c1 [compound 160]			96.5%
	O=C(Nc1ccc(O)c(C(=O)Nc2cc(C(F)(F)F)cc(C(F)(F)F)c2)c1)c1ccccc1 [compound 45]			63.4%
	CCOC(=O)c1sc(NC(=O)c2cc(Br)ccc2O)nc1C(C)(C)C [compound 202, 2-(5-Bromo-2-hydroxybenzoyl)amino-4-[(1,1-dimethyl)ethyl]thiazole-5-carboxylic acid ethyl ester]	84.5%	92.4%	
93.3%	O=C(Nc1cc(C(F)(F)F)cc(C(F)(F)F)c1)c1ccccc1O [compound 2]			95.6%
	CC(C)(C)c1nc(NC(=O)c2cc(Br)ccc2O)sc1N1CCCCC1 [compound 204, 5-Bromo-N-{4-[(1,1-dimethyl)ethyl]-5-piperidinothiazol-2-yl}-2-hydroxybenzamide]	93.6%	97.8%	
83.6%	Cc1sc(NC(=O)c2cc(Br)ccc2O)nc1-c1ccccc1 [compound 192]			94.4%
	CC(C)c1nc(NC(=O)c2cc(Br)ccc2O)sc1-c1ccccc1 [compound 197, 5-Bromo-N-(4-isopropyl-5-phenylthiazol-2-yl)-2-hydroxybenzamide]	70.1%	96.1%	

Inhibitory rate against NF-κB activation (%) (Drug concentration at 1 μg/mL)	Compound	inhibition at 1 µg/mL (Drug concentration at 1 μg/mL)	inhibition at 10 µg/mL (Drug concentration at 10 μg/mL)	Inhibitory rate against NF-κB activation (%) (Drug concentration at 10 μg/mL)
35.1%	CCOc1ccc(OCC)c(NC(=O)c2cc(Cl)ccc2O)c1 [compound 152]			95.3%
38.3%	COc1cc(NC(=O)c2cc(Br)ccc2O)cc(OC)c1 [compound 143]			96.8%
20.0%	CC(C)(C)c1nc(NC(=O)c2cc(Br)ccc2O)sc1C#N [compound 189]			93.8%
>99.9%	O=C(Nc1cc(C(F)(F)F)cc(C(F)(F)F)c1)c1cc(Br)cc(-c2ccccc2)c1O [compound 259]			
85.3%	O=C(Nc1cc(Cl)cc(Cl)c1)c1c(O)ccc2ccccc12 [compound 182]			90.2%
	CC(C)(C)c1nc(NC(=O)c2cc(Br)ccc2O)sc1N1CCN(c2ccccc2)CC1 [compound 207, 5-Bromo-N-{4-[(1,1-dimethyl)ethyl]-5-(4-phenylpiperazin-1-yl)thiazol-2-yl}-2-hydroxybenzamide]	92.5%	95.9%	
	CC(C)(C)c1nc(NC(=O)c2cc(Br)ccc2O)sc1N1CCOCC1 [compound 205, 5-Bromo-N-{4-[(1,1-dimethyl)ethyl]-5-morpholinothiazol-2-yl}-2-hydroxybenzamide]	87.8%	96.8%	
52.6%	COc1ccc(C(=O)Nc2ccccc2)cc1NC(=O)c1cc(Cl)ccc1O [compound 157]			98.8%
	N#Cc1ccc(O)c(C(=O)Nc2cc(C(F)(F)F)cc(C(F)(F)F)c2)c1 [compound 9, N-[3,5-Bis(trifluoromethyl)phenyl]-5-cyano-2-hydroxybenzamide]	92.2%	99.6%	
	O=C(Nc1cc(C(F)(F)F)cc(C(F)(F)F)c1)c1cccc(O)c1O [compound 57]			91.9%
	O=C(Nc1cc(C(F)(F)F)cc(C(F)(F)F)c1)c1cccc(-c2ccccc2)c1O [compound 249, N-[3,5-bis(trifluoromethyl)phenyl]-2-hydroxy-3-phenylbenzamide]	86.6%	90.7%	
11.2%	CCN(CC)S(=O)(=O)c1ccc(OC)c(NC(=O)c2cc(Cl)ccc2O)c1 [compound 155]			90.2%
	COc1ccc(-c2csc(NC(=O)c3cc(Cl)ccc3O)n2)cc1 [compound 264, 5-Chloro-2-hydroxy-N-[4-(4-methoxyphenyl)thiazol-2-yl]benzamide]	> 99.9%		
	O=C(Nc1nc(-c2ccc(Cl)c(Cl)c2)cs1)c1cc(Cl)ccc1O [compound 260, 5-Chloro-2-hydroxy-N-[4-(3,4-dichlorophenyl)thiazol-2-yl]benzamide]	> 99.9%		
92.9%	CC(=O)Oc1ccccc1C(=O)Nc1cc(Cl)cc(Cl)c1 [compound 121]			95.5%

Compound	Inhibitory rate against NF-κB activation (%) (Drug concentration at 1 μg/mL)	inhibition at 1 µg/mL (Drug concentration at 1 μg/mL)	inhibition at 10 µg/mL (Drug concentration at 10 μg/mL)	Inhibitory rate against NF-κB activation (%) (Drug concentration at 10 μg/mL)
COc1ccc(O)c(C(=O)Nc2cc(C(F)(F)F)cc(C(F)(F)F)c2)c1 [compound 33]	30.7%			97.0%
Cc1ccc(O)c(C(=O)Nc2cc(C(F)(F)F)ccc2C(F)(F)F)c1 [compound 84]	92.6%			96.6%
CC(C)(C)CC(C)(C)c1ccc(O)c(C(=O)Nc2cc(C(F)(F)F)cc(C(F)(F)F)c2)c1 [compound 60]	94.0%			99.1%
O=C(Nc1cc(C(F)(F)F)cc(C(F)(F)F)c1)c1cc(N=Nc2ccc([N+](=O)[O-])cc2)ccc1O [compound 48]	96.2%			98.7%
O=C(Nc1cc(C(F)(F)F)ccc1N1CCCC1)c1cc(Br)ccc1O [compound 97]	95.8%			97.8%
CC(C)(C)c1cc(C(=O)Nc2cc(C(F)(F)F)cc(C(F)(F)F)c2)c(O)c(C(C)(C)C)c1 [compound 62]	37.0%			86.9%
O=C(Nc1cc(C(F)(F)F)cc(C(F)(F)F)c1)c1cc(C(F)(F)F)ccc1O [compound 25]	96.4%			99.6%
O=C(Nc1cc(F)cc(C(F)(F)F)c1)c1cc(Cl)ccc1O [compound 85]	94.7%			98.9%
COc1ccc(C(F)(F)F)cc1NC(=O)c1cc(Br)ccc1O [compound 94]	76.6%			93.4%
COc1cccc(C(=O)Nc2cc(C(F)(F)F)cc(C(F)(F)F)c2)c1O [compound 59]	41.9%			94.7%
COc1ccc(-n2cccc2)c(NC(=O)c2cc(Cl)ccc2O)c1 [compound 167]	76.4%			98.7%
CCOC(=O)c1sc(NC(=O)c2cc(-n3cccc3)ccc2O)nc1-c1ccccc1 [compound 229]	74.0%			90.1%
CCCCCCOc1ccc(S(C)(=O)=O)cc1NC(=O)c1cc(Cl)ccc1O [compound 165]	95.9%			99.4%
CC(C)(C)c1cc(NC(=O)c2cc(Cl)cnc2O)cc(C(C)(C)C)c1 [compound 184]	53.6%			63.8%
Cc1ccc(O)c(C(=O)Nc2cc(C(C)(C)C)cc(C(C)(C)C)c2)c1 [compound 147]	38.9%			91.0%
